Test results from patent US20040226502A1, “Crystal structure of 2c-methyl-d-erythritol 2,4-cyclodiphosphate synthase” (priority 2001, published 2004).

How the values were obtained:
[1] = molecular target: T1, 2C-methyl-D-erythritol 2,4-cyclodiphosphate synthase (Escherichia coli, UniProt P62617); assay: Crystal soaking and 3D structure determination of ligand complexes; assay type: binding, E. coli; details: for affinity for the protein (in words): from crystals/structures subs, sub2 and cyt
T1 construct: His6 (from vector pQE30) (N); made in house; host or cells: E. coli XL1-Blue carrying pQEispF
Method: The following substrate, substrate analoge and product complexes were determined in order to determine binding of these molecules to the synthase:
subop: a crystal soaked with 10 mM 4-diphosphocytidyl-2C-methyl-D-erythritol. The zinc atom the water or hydroxyl-group at the zinc is replaced by an oxygen of the beta-phosphate of the diphosphocytidyl-moiety.
subs: a crystal soaked with 10 mM 4-diphosphocytidyl-2C-methyl-D-erythritol 2-phosphate and 10 mM EDTA, that contains no zinc.
sub2: a crystal soaked with 10 mM 4-diphosphocytidyl-2C-methyl-D-erythritol 2-phosphate, that containes zinc and the products CMP and 2C-methyl-D-erythritol 2,4-cyclodiphosphate.
mgcdp2: a crystal soaked with 2 mM CDP and 5 mM MgCl2
cyt: a crystal soaked with 10 mM cytidine
These structures were determined using the nat2 structure as starting model. Initially a rigid body refinement was carried out followed by positional refinement. Then the substrate, substrate analoge or product molecules were build into the electron density of difference electron density maps, again followed by refinement of atom positions and B-factors.
Crystals containing the synthase and zinc were incubated for one hour with about 5 mM of a ligand in mother liquor containing 2M ammonium formate, 0.1M HEPES/NaOH at pH 7.0 and 20% D-(−)-2,3-butanediole (purchased from FLUKA) as a cryo-protectant. Crystals were mounted in a nylon-loop and flash frozen in a stream of nitrogen at 100Kelvin with an Oxford cryo stream. […] Diffraction data were measured at that temperature without any indication of radiation damage.
In order to obtain a crystal structure of 2C-methyl-D-erythritol 2,4-cyclodiphosphate synthase in complex with CDP, the synthase was crystallized according to example 8. A crystal of suitable size was then soaked in crystallization buffer (see example 8) further containing 5 mM CDP and 5 mM MgCl2.
The starting model for the determination of the structure of the complex was the structure of the synthase without a substrate analoge. […]

[2] = molecular target: T1, 2C-methyl-D-erythritol 2,4-cyclodiphosphate synthase; assay type: biochemical; details: E. coli enzyme, compound as substrate
Method: Assay mixtures contain 50 mM potassium phosphate, pH 7.0, 2 mM DTT, 2 mM MgCl2, 1 mM 4-diphosphocytidyl-2C-methyl-D-erythritol 2-phosphate and protein in a total volume of 100 μl. The mixtures are incubated at 37° C. for 20 min. The reactions are terminated by adding EDTA at a final concentration of 4 mM. The samples are centrifuged and the supernatant is analyzed by HPLC using a column of Multospher 120 RP 18-AQ-5 (4.6×250 mm, CS-Chromatographic Service Gmbh) that has been equilibrated and run with Gradient No. 3 at a flow rate 1 ml min^−1 (see below). The effluent is monitored photometrically (270 nm).
One unit of 2C-methyl-D-erythritol 2,4-cyclodiphosphate synthase activity is defined as the amount of protein which produced 1 μmol min^−1 of CMP.
Column: Multospher 120 RP 18-5 AQ, 250×4.6 mm, particle size 5 μm (CS: Chromatographic Service GmbH, Langerwehe, Germany)

T1 sequence (P62617 whole entry): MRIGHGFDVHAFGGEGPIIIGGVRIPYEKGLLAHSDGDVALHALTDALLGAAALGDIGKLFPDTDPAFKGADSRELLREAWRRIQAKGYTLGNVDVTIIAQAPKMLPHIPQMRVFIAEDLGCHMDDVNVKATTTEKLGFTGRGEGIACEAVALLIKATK

Nc1ccn([C@@H]2O[C@H](CO)[C@@H](O)[C@H]2O)c(=O)n1 [cytidine]
affinity for the protein (in words) [1]: considerable affinity

C[C@@](CO)(OP(=O)(O)O)[C@H](O)COP(=O)(O)OP(=O)(O)OC[C@H]1O[C@@H](n2ccc(N)nc2=O)[C@H](O)[C@@H]1O [4-diphosphocytidyl-2C-methyl-D-erythritol 2-phosphate]
Km [2]: 37 µM | vmax [2]: 76 µmol/mg/min

Nc1ccn([C@@H]2O[C@H](COP(=O)(O)OP(=O)(O)O)[C@@H](O)[C@H]2O)c(=O)n1 [CDP, cytidine diphosphate]
type of inhibition of the synthase (in words) ([1]; inferred from binding to a portion of the active site in the synthase-CDP complex): competitive inhibitor

Nc1ccn([C@@H]2O[C@H](COP(=O)(O)O)[C@@H](O)[C@H]2O)c(=O)n1 [CMP, cytidine monophosphate]
affinity for the protein (in words) [1]: considerable affinity
